Laboratory results: patent publication US5024839A, “Dactylocycline A and dactylocycline B” (E. R. Squibb & Sons, Inc., priority 1987, dated 1991)
Converted amounts (≈) assume the structure as drawn.

Key:
Assay type in all cases: cell-based
[1] = tested on: Staphylococcus aureus SC10016; assay: MIC (agar dilution, K-10 agar)
Procedure: (§1) The following methodology was used to determine the minimum inhibitory concentration (hereinafter referred to as MIC) of the compounds of this invention. The test organisms were grown in 20 ml of Antibiotic Assay Broth (Difco) by inoculating the broth (in tubes) with a loopful of the organism from a BHI (Difco) agar slant. The inoculated tubes were incubated at 37° C. for 18 to 24 hours. These cultures are assumed to contain 10^9 colony forming units (CFU) per ml. The cultures were diluted 1:100 to give a final inoculum level of 10^7 CFU; dilutions were made with Yeast Beef Broth (Difco). The test compounds were dissolved in an appropriate diluent at a concentration of 1,000 μg/ml. Two-fold dilutions were made in Yeast Beef Broth (Difco) resulting in a range from 1000 μg/ml to 0.5 μg/ml. A 1.5 ml portion of each dilution was placed into individual petri dishes to which 13.5 ml of K-10 agar was added. The composition of K-10 agar is:
(§2) The final drug concentration in the agar ranged from 100 μg/ml to 0.05 μg/ml. Organism growth control plates containing agar only were prepared and inoculated before and after the test plates. The organisms were applied to agar surface of each plate with a Denly Multipoint Inoculator, which delivers approximately 10^4 CFU on the agar surface.
(§3) The plates were incubated at 37° C. for 18 hours and the MICs determined. The MIC is the lowest concentration of compound inhibiting growth of the organism.
(§4) The test organisms chosen for this study are pairs of tetracycline-sensitive and tetracycline-resistant strains.

[2] = tested on: Staphylococcus aureus SGB 42; assay: MIC (agar dilution, K-10 agar)
Procedure: as §1, §2, §3, §4

[3] = tested on: Staphylococcus epidermidis SC9052; assay: MIC (agar dilution, K-10 agar)
Procedure: as §1, §2, §3, §4

[4] = tested on: Streptococcus faecalis SC9011; assay: MIC (agar dilution, K-10 agar)
Procedure: as §1, §2, §3, §4

[5] = tested on: Streptococcus faecalis SC9776; assay: MIC (agar dilution, K-10 agar)
Procedure: as §1, §2, §3, §4

[6] = tested on: Staphylococcus aureus SC2399; assay: MIC (agar dilution, K-10 agar)
Procedure: as §1, §2, §3, §4

[7] = tested on: Staphylococcus aureus SGB 45; assay: MIC (agar dilution, K-10 agar)
Procedure: as §1, §2, §3, §4

[8] = tested on: Staphylococcus epidermidis SC9087; assay: MIC (agar dilution, K-10 agar)
Procedure: as §1, §2, §3, §4

[9] = tested on: gram-positive bacteria, including tetracycline-resistant bacteria; assay: Activity against gram-positive bacteria
Procedure: as §1, §2
The plates were incubated at 37° C. for 18 hours and the MICs determined. […]

[10] = Staphylococcus aureus SC10016, K-10 agar, approximately 10^4 CFU, 37° C., 18 hours
[11] = Staphylococcus aureus SGB 42, K-10 agar, approximately 10^4 CFU, 37° C., 18 hours
[12] = Staphylococcus epidermidis SC9052, K-10 agar, approximately 10^4 CFU, 37° C., 18 hours
[13] = Streptococcus faecalis SC9011, K-10 agar, approximately 10^4 CFU, 37° C., 18 hours
[14] = Streptococcus faecalis SC9776, K-10 agar, approximately 10^4 CFU, 37° C., 18 hours
[15] = Staphylococcus aureus SC2399, K-10 agar, approximately 10^4 CFU, 37° C., 18 hours
[16] = Staphylococcus aureus SGB 45, K-10 agar, approximately 10^4 CFU, 37° C., 18 hours
[17] = Staphylococcus epidermidis SC9087, K-10 agar, approximately 10^4 CFU, 37° C., 18 hours

Compound COc1cc(O)c2c(c1Cl)[C@](C)(O[C@H]1C[C@](C)(NO)[C@@H](OC)[C@H](C)O1)[C@H]1C[C@@]3(O)[C@H](N(C)C)C(=O)C(C(N)=O)=C(O)[C@@]3(O)C(=O)C1=C2O [Dactylocycline A] has an MIC [1, 10] of 6.3 µg/mL (≈ 9.02 µM), an MIC [2, 11] of 1.6 µg/mL (≈ 2.29 µM) and an MIC [3, 12] of 6.3 µg/mL (≈ 9.02 µM). For the same compound, the MIC [4, 13] was 25 µg/mL (≈ 35.8 µM), the MIC [5, 14] was 25 µg/mL (≈ 35.8 µM) and the MIC [6, 15] was 1.6 µg/mL (≈ 2.29 µM). For the same compound, the MIC [7, 16] was 3.1 µg/mL (≈ 4.44 µM), the MIC [8, 17] was 3.1 µg/mL (≈ 4.44 µM) and the “activity against gram-positive bacteria” value [9] was “active against gram-positive bacteria, including tetracycline-resistant bacteria”.

COc1cc(O)c2c(c1Cl)C(C)(OC1CC(C)([N+](=O)[O-])C(OC)C(C)O1)C1CC3(O)C(N(C)C)C(=O)C(C(N)=O)=C(O)C3(O)C(=O)C1=C2O (centres unmarked) [Dactylocycline B] gave an MIC [1, 10] of 3.1 µg/mL (≈ 4.35 µM), an MIC [2, 11] of 3.1 µg/mL (≈ 4.35 µM) and an MIC [3, 12] of 3.1 µg/mL (≈ 4.35 µM). It also gave an MIC [4, 13] of 6.3 µg/mL (≈ 8.85 µM), an MIC [5, 14] of 6.3 µg/mL (≈ 8.85 µM) and an MIC [6, 15] of 6.3 µg/mL (≈ 8.85 µM). The MIC [7, 16] was 3.1 µg/mL (≈ 4.35 µM), the MIC [8, 17] was 3.1 µg/mL (≈ 4.35 µM) and the “activity against gram-positive bacteria” value [9] was “active against gram-positive bacteria, including tetracycline-resistant bacteria”.

CN(C)[C@@H]1C(O)=C(C(N)=O)C(=O)[C@@]2(O)C(O)=C3C(=O)c4c(O)cccc4[C@@](C)(O)[C@H]3C[C@@H]12 [Tetracycline, reference compound] gave an MIC ([1]; Staphylococcus aureus, SC10016, 18 h) of 100 µg/mL (≈ 225 µM), an MIC ([2]; Staphylococcus aureus, SGB42, 18 h) of 0.2 µg/mL (≈ 0.45 µM) and an MIC ([3]; Staphylococcus epidermidis, SC9052, 18 h) of 0.8 µg/mL (≈ 1.8 µM). It also gave an MIC ([4]; Enterococcus faecalis, SC9011, 18 h) of 1.6 µg/mL (≈ 3.6 µM), an MIC ([5]; Enterococcus faecalis, SC9776, 18 h) of over 100 µg/mL and an MIC ([6]; Staphylococcus aureus, SC2399, 18 h) of 0.4 µg/mL (≈ 0.9 µM). For the same compound, the MIC ([7]; Staphylococcus aureus, SGB45, 18 h) was 100 µg/mL (≈ 225 µM) and the MIC ([8]; Staphylococcus epidermidis, SC9087, 18 h) was 50 µg/mL (≈ 113 µM).
